Measurements reported in patent US6953789B2, “Thiol compounds, their production and use” (Takeda Chemical Industries, Ltd., priority 1998, dated 2005).

Biological target: T1, recombinant human MMP-13 (Homo sapiens, UniProt P45452)
T1 construct: made in house; host or cells: baculovirus (pBlueBac4 / Bac-N-Blue; virus made in Sf9), expressed in High-Five insect cells; culture supernatant used
Test: Assay of MMP-13 inhibiting activity (fluorogenic peptide substrate)
Assay type: biochemical
Conditions: Table 1; 37° C., 2 hours
Summary of the method: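 Baculovirus-expressed human MMP-13 (High-Five cell supernatant) in pH 7.5 Tris buffer with 200 mM NaCl, 20 mM CaCl2, 0.1% Brij 35, 1 mM 2-mercaptoethanol; reaction started with 40 μM (stock) MOCAc-PLGL-A2pr(DNP)-AR-NH2, 2 h at 37 °C, stopped at pH 3.0. Fluorescence 330/405 nm; IC50 versus no-compound control.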

IC50 [nM]	Molecule
400	CC(=O)SCC1CC(=O)N(Cc2ccc(Oc3ccccc3)cc2)C1=O (stereo not drawn) [Example 10, 3-Acethylmethyl-1-(4-phenoxybenzyl)pyrrolidine-2,5-dione]
> 10000	CCOC(=O)CCSC1CC(=O)N(Cc2ccc(Oc3ccccc3)cc2)C1=O (stereo not drawn) [Example 3, 3-[2-(Ethoxycarbonyl)ethylthio]-1-(4-phenoxybenzyl)pyrrolidine-2,5-dione]

Same assay, conditions: Table 2; 37° C., 2 hours

IC50 [nM]	Molecule
20	CC1C(=O)N(Cc2ccc(Oc3ccccc3)cc2)C(=O)C1S (stereo not drawn) [Example 8, 3-Mercapto-4-methyl-1-(4-phenoxybenzyl)pyrrolidine-2,5-dione]

Same assay, conditions: Table 3; 37° C., 2 hours

IC50 [nM]	Molecule
0.9	CCOC(=O)CCNC(=O)S[C@@H]1CC(=O)N(Cc2ccc(Oc3ccccc3)cc2)C1 [Example 60, Ethyl [({[(3R)-5-oxo-1-(4-phenoxybenzyl)pyrrolidinyl]sulfanyl}carbonyl)amino]propanoate]
3.2	CCC(=O)S[C@@H]1CC(=O)N(Cc2ccc(Oc3ccccc3)cc2)C1 [Example 64, S-[(3R)-5-oxo-1-(4-phenoxybenzyl)pyrrolidinyl]propanethioate]
1.5	O=C(NCc1ccccc1)S[C@@H]1CC(=O)N(Cc2ccc(Oc3ccccc3)cc2)C1 [Example 54, S-[(3R)-5-oxo-1-(4-phenoxybenzyl)pyrrolidinyl]benzylthiocarbamate]
4000	CC(=O)S[C@H]1CC(=O)N(Cc2ccc(Oc3ccccc3)cc2)C1 [Example 21, (S)-4-Acetylthio-1-(4-phenoxybenzyl)pyrrolidin-2-one]
2	O=C(SC1CC(=O)N(Cc2ccc(Oc3ccccc3)cc2)C1)c1ccccc1 (stereo not drawn) [Example 16, 4-Benzoylthio-1-(4-phenoxybenzyl)pyrrolidin-2-one]
0.81	CCOC(=O)NC(=O)S[C@@H]1CC(=O)N(Cc2ccc(Oc3ccccc3)cc2)C1 [Example 57, O-Ethyl S-[(3R)-5-oxo-1-(4-phenoxybenzyl)pyrrolidinyl]imidothiodicarbonate]
1000	CCCCCCSS[C@@H]1CC(=O)N(Cc2ccc(Oc3ccccc3)cc2)C1 [Example 80, (4R)-4-(Hexyldisulfanyl)-1-(4-phenoxybenzyl)-2-pyrrolidinone]
1.8	O=C(O)CCNC(=O)S[C@@H]1CC(=O)N(Cc2ccc(Oc3ccccc3)cc2)C1 [Example 61, N-({[(3R)-5-oxo-1-(4-phenoxybenzyl)pyrrolidinyl]sulfanyl}carbonyl)-p-alanine]
2000	CCOC(=O)CCS[C@@H]1CC(=O)N(Cc2ccc(Oc3ccccc3)cc2)C1 [Example 92, Ethyl 3-{[(3R)-5-oxo-1-(4-phenoxybenzyl)pyrrolidinyl]sulfanyl}propanoate]
1000	CC(C)(C)SS[C@@H]1CC(=O)N(Cc2ccc(Oc3ccccc3)cc2)C1 [Example 81, (4R)-4-(t-Butyldisulfanyl)-1-(4-phenoxybenzyl)-2-pyrrolidinone]
11	O=C(O)CC(=O)S[C@@H]1CC(=O)N(Cc2ccc(Oc3ccccc3)cc2)C1 [Example 73, 3-Oxo-3-{[(3R)-5-oxo-1-(4-phenoxybenzyl)pyrrolidinyl]sulfanyl}propanoic acid]

Same assay, conditions: Table 5; 37° C., 2 hours

IC50 [nM]	Molecule
2.3	CCCNC(=O)OC[C@H]1[C@H](S)CC(=O)N1Cc1ccc(Oc2ccccc2)cc1 (relative stereo) [Example 184, trans-4-Mercapto-5-propylaminocarbonyloxymethyl-1-(4-phenoxybenzyl)pyrrolidin-2-one]
5	CC(=O)S[C@@H]1CC(=O)N(Cc2ccc(Oc3ccccc3)cc2)[C@H]1COCc1ccccc1 (relative stereo) [Example 38, Trans-4-acetylthio-5-benzyloxymethyl-1-(4-phenoxybenzyl)pyrrolidin-2-one]
6	CC(=O)S[C@@H]1CC(=O)N(Cc2ccc(Oc3ccccc3)cc2)[C@H]1COC1CCCCO1 (relative stereo) [Example 185, trans-4-Acetylthio-5-(tetrahydro-2H-pyran-2-yl)oxymethyl-1-(4-phenoxybenzyl)pyrrolidin-2-one]
5	C[C@H]1[C@H](S)CC(=O)N1Cc1ccc(Oc2ccccc2)cc1 [Example 178, (4R,5S)-4-Mercapto-5-methyl-1-(4-phenoxybenzyl)pyrrolidin-2-one]
360	CC(=O)SC1CC(=O)N(Cc2ccc(Oc3ccccc3)cc2)C1C(N)=O (stereo not drawn) [Example 187, trans-5-Aminocarbonyl-4-acetylthio-1-(4-phenoxybenzyl)pyrrolidin-2-one]
13	NC(=O)C1C(S)CC(=O)N1Cc1ccc(Oc2ccccc2)cc1 (stereo not drawn) [Example 188, trans-5-Aminocarbonyl-4-mercapto-1-(4-phenoxybenzyl)pyrrolidin-2-one]

Same assay, conditions: Table 7; 37° C., 2 hours

IC50 [nM]	Molecule
70	O=C1C[C@@H](SS[C@@H]2CC(=O)N(Cc3ccc(Oc4ccccc4)cc3)C2)CN1Cc1ccc(Oc2ccccc2)cc1 [Example 26, (4R,4′R)-4,4′-Dithiobis[1-(4-phenoxybenzyl)pyrrolidin-2-one]]
> 10000	O=C1CC(CSSCC2CC(=O)N(Cc3ccc(Oc4ccccc4)cc3)C2=O)C(=O)N1Cc1ccc(Oc2ccccc2)cc1 (stereo not drawn) [Example 13, 3,3′-[Dithiobis(methylene)]bis[1-(4-phenoxybenzyl)pyrrolidine-2,5-dione]]
200	O=C1CC(SSC2CC(=O)N(Cc3ccc(Oc4ccccc4)cc3)C2)CN1Cc1ccc(Oc2ccccc2)cc1 (stereo not drawn) [Example 19, 4,4′-Dithiobis[1-(4-phenoxybenzyl)pyrrolidin-2-one]]

Same assay, conditions: Table 8; 37° C., 2 hours

IC50 [nM]	Molecule
> 10000	CC(=O)SC1CCN(Cc2ccc(Oc3ccccc3)cc2)C1=O (stereo not drawn) [Example 27, 3-Acetylthio-1-(4-phenoxybenzyl)pyrrolidin-2-one]
1000	O=C(SC1CCN(Cc2ccc(Oc3ccccc3)cc2)C1=O)c1ccccc1 (stereo not drawn) [Example 28, 3-Benzoylthio-1-(4-phenoxybenzyl)pyrrolidin-2-one]

Same assay, conditions: Table 9; 37° C., 2 hours

IC50 [nM]	Molecule
10	CC(=O)SC1CC(=O)N(Cc2ccc(Oc3cccc(F)c3)cc2)C1 (stereo not drawn) [Example 114, 4-Acetylthio-1-[4-(3′-fluorophenoxy)benzyl]pyrrolidin-2-one]
29	CC(=O)SC1CC(=O)N(Cc2ccc(Oc3ccc(C(N)=O)cc3)cc2)C1 (stereo not drawn) [Example 134, 4-Acetylthio-1-[4-(4′-aminocarbonylphenoxy)benzyl]pyrrolidin-2-one]
7	O=C1CC(S)CN1Cc1ccc(Oc2ccc(F)cc2F)cc1 (stereo not drawn) [Example 120, 4-Mercapto-1-[4-(2′,4′-difluorophenoxy)benzyl]pyrrolidin-2-one]
2	O=C1C[C@@H](S)CN1Cc1ccc(Oc2ccc(F)cc2)cc1 [Example 118, (R)-4-Mercapto-1-[4-(4′-fluorophenoxy)benzyl]pyrrolidin-2-one]
5	O=C1CC(S)CN1Cc1ccc(Oc2ccc(Cl)cc2)cc1 (stereo not drawn) [Example 33, 4-Mercaoto-1-(4-(4′-chlorophenoxy)benzyl)pyrrolidin-2-one]
20	CC(=O)SC1CC(=O)N(Cc2ccc(Oc3ccc(OC(F)(F)F)cc3)cc2)C1 (stereo not drawn) [Example 140, 4-Acetylthio-1-{4-[4′-(trifluoromethoxy)phenoxy]benzyl}pyrrolidin-2-one]
3.5	CCNC(=O)Nc1ccc(Oc2ccc(CN3CC(S)CC3=O)cc2)cc1 (stereo not drawn) [Example 149, 4-Mercapto-1-[4-(4′-ethylaminocarbonylaminophenoxy)benzyl]pyrrolidin-2-one]
20	CCOC(=O)c1ccc(Oc2ccc(CN3CC(SC(C)=O)CC3=O)cc2)cc1 (stereo not drawn) [Example 131, 4-Acetylthio-1-[4-(4′ethoxycarbonylphenoxy)benzyl]pyrrolidin-2-one]
10	O=C1CC(S)CN1Cc1ccc(Oc2ccc(C(F)(F)F)cc2)cc1 (stereo not drawn) [Example 130, 4-Mercapto-1-{4-[4′-(trifluoromethyl)phenoxy]benzyl}pyrrolidin-2-one]
4	O=C1CC(S)CN1Cc1ccc(Oc2ccccc2F)cc1 (stereo not drawn) [Example 113, 4-Mercapto-1-[4-(2′-fluorophenoxy)benzyl]pyrrolidin-2-one]

Same assay, conditions: Table 10; 37° C., 2 hours

IC50 [nM]	Molecule
> 10000	CC(=O)SC1CC(=O)N(Cc2ccc([S+]([O-])c3ccccc3)cc2)C1 (stereo not drawn) [Example 171, 4-Acetylthio-1-(4-phenylsulfinylbenzyl)pyrrolidin-2-one]
20	O=C(c1ccccc1)c1ccc(CN2CC(S)CC2=O)cc1 (stereo not drawn) [Example 162, 4-Mercapto-1-(4-benzoylbenzyl)pyrrolidin-2-one]
7	O=C1CC(S)CN1Cc1ccc(Sc2ccccc2)cc1 (stereo not drawn) [Example 155, 4-Mercapto-1-(4-phenylthiobenzyl)pyrrolidin-2-one]

Same assay, conditions: Table 11; 37° C., 2 hours

IC50 [nM]	Molecule
> 10000	CC(=O)SC1CC(=O)N(CC2CCN(C(=O)c3ccccc3)CC2)C1 (stereo not drawn) [Example 193, 4-Acetylthio-1-[(1-benzoyl-4-piperidyl)methyl]pyrrolidin-2-one]
> 10000	CC(=O)SC1CC(=O)N(Cc2ccc(N(c3ccccc3)S(=O)(=O)c3ccc(C)cc3)cc2)C1 (stereo not drawn) [Example 203, 4-Acetylthio-1-[4-(N-phenyl-N-p-toluenesulfonyl)aminobenzyl]pyrrolidin-2-one]
4	O=C1CC(S)CN1Cc1ccc(Oc2ccsc2)cc1 (stereo not drawn) [Example 158, 4-Mercapto-1-[4-(3′-thienyloxy)benzyl]pyrrolidin-2-one]

Same assay, conditions: Table 12; 37° C., 2 hours

Molecule	IC50 [nM]
S-[2-Oxo-1-(4-phenoxybenzyl)-4-piperidinyl]ethanethioate [Example 110]	250
O=C1CCC(S)CN1Cc1ccc(Oc2ccccc2)cc1 (stereo not drawn) [Example 109, 1-(4-Phenoxybenzyl)-5-sulfanyl-2-piperidinone]	60

Same assay, conditions: Table 13; 37° C., 2 hours

IC50 [nM]	Molecule
5000	O=C1C(S)CCCN1Cc1ccc(Oc2ccccc2)cc1 (stereo not drawn) [Example 48, 3-Mercapto-1-(4-phenoxybenzyl)piperidin-2-one]
70	CC(=O)SC1CCC(=O)N(Cc2ccc(Oc3ccccc3)cc2)C1=O (stereo not drawn) [Example 42, 3-Acetylthio-1-(4-phenoxybenzyl)piperidine-2,6-dione]
